Paper PMC7422721 (ACS chemical biology, 2019)

Tests used:
[1] = target: T1, RNF4 (Homo sapiens, UniProt P78317); assay: competitive gel-based ABPP against IA-rhodamine labeling of pure RNF4; assay type: binding
T1 sequence (P78317 1-190): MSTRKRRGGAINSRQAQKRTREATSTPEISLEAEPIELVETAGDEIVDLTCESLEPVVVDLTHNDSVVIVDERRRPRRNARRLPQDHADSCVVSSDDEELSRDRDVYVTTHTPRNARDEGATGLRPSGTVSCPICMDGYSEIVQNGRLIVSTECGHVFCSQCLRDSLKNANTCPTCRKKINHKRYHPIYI

[2] = target: T1, RNF4; assay: LC-MS/MS of covalent adduct on purified RNF4; assay type: binding

Row | IC50 [1] | IC50 [2] | Compound
1 | 0.54 µM |  | Cc1sc2c(c1C)C(c1ccc(Cl)cc1)=N[C@@H](CC(=O)NCCCCOc1ccc(Oc3ccc(N(Cc4ccccc4)C(=O)CCl)cc3)cc1)c1nnc(C)n1-2 [CCW 28-3, CCW 28–3]
2 |  | double digit micromolar | TRH 1–23 [TRH 1-23]
